Measurements taken from US6274596A, “Benzoquinoline derivatives useful as antibacterial agents” (priority 1999, dated 2001).
In brackets after ≈: the same amount, converted by molar mass. Read-outs that look alike come from different tables or passages of the source.

Experiments:
[1] = system: E. coli (MCR106); test: MIC, broth microdilution, E. coli (MCR106); type: cell-based
Description: (§1) The antimicrobial activity of a compound or formulation according to the invention is determined by exposing a culture comprising a bacterial species to different concentrations of the compound or formulation and monitoring the effects on growth relative to a control culture not exposed to the compound. Any method known in the art may be used to assess bacterial growth. Antimicrobial effects are expressed as Minimal Inhibitory Concentration (MIC) and Minimum Bactericidal Concentration (MBC).
(§2) The MIC is expressed as a range between the concentration at which no growth is observed and the concentration of the dilution which immediately follows.
(§3) Typically, MIC is measured using a broth microdilution assay as follows. Dilution of candidate antimicrobial compounds in culture medium is performed in a sterile, covered 96-well microtiter plate with flat bottom wells (Costar #9017). The final concentrations of the compounds are typically 100, 50, 25, 12.5, 6.25, 3.12, 1.56, 0.78, 0.39, 0.20, 0.10, and 0.05 μg/mL, respectively. Culture medium only (containing no bacteria) is also included as a negative control for each plate. Ampicillin and rifamnpin are used as positive controls against all bacterial strains in every experiment.
(§4) The overnight culture of a single colony is diluted in sterile medium so that, after inoculation, each well contains approximately 5×10^5CFU/mL. Within 15 minutes of preparation, […] of the adjusted inoculum suspension is added to the microliter plate. Each well is diluted with an equal volume of the antimicrobial compounds or control solution. The inoculated microtiter plate is typically incubated at 35° C. for 16-20 hours. The turbidity of each well is determined by measuring the absorbance at 595 nm using a BioRad Model 3550-UV microplate reader.
(§5) The antimicrobial activities of the compounds of the invention, expressed as MIC and MBC, were determined as described above, using as tester strains wild-type S. aureus, rifampicin-resistant S. aureus, wild-type E. coli, and E. coli cells that had been permeabilized.

[2] = system: E. coli (BAS); test: MIC, broth microdilution, E. coli (BAS); type: cell-based
Description: as §1, §2, §3, §4, §5

[3] = system: S. Aureus; test: MIC, broth microdilution, S. Aureus; type: cell-based; details: for MIC: S. Aureus
Description: as §1, §2, §3, §4, §5

[4] = system: S. Aureus (Rif-res); test: MIC, broth microdilution, S. Aureus (Rif-res); type: cell-based
Description: as §1, §2, §3, §4, §5

[5] = system: E. coli (MCR106); test: MBC, E. coli (MCR106); type: cell-based; details: minimum bactericidal concentration; for MBC: Escherichia coli, read-out: MBG
Description: as §1
(§6) The minimum bactericidal concentration (MBC) is defined as the concentration of antimicrobial agent from which no colonies grow on petri plates or in the medium. In practice, the MBC is arbitrarily defmed as the concentration at which a 1000-fold reduction in colony forming units is observed with respect to the original inoculum (survival of 0.1%). Typically, the wells from a MIC microliter plate using a 96-well inoculation grid into a fresh microliter plate containing 100 μL Mueller-Hinton broth per well. The MBC plates are incubated at 37° C. for 16-20 hrs and the MBC values are determined.
as §5

[6] = system: E. coli (BAS); test: MBC, E. coli (BAS); type: cell-based; details: minimum bactericidal concentration; for MBC: Escherichia coli, read-out: MBG
Description: as §1, §6, §5

[7] = system: S. Aureus; test: MBC, S. Aureus; type: cell-based; details: for MBC: Staphylococcus aureus, read-out: MBG
Description: as §1, §6, §5

[8] = system: S. Aureus (Rif-res); test: MBC, S. Aureus (Rif-res); type: cell-based; details: for MBC: Staphylococcus aureus, read-out: MBG
Description: as §1, §6, §5

[9] = system: bacterial RNA polymerase; test: in vitro transcription, bacterial versus human RNA polymerase; type: biochemical; details: in words; RNA polymerase from S. aureus, E. coli or human, pTaq promoter template
Description: The compounds useful for inclusion in the pharmaceutical formulations of the invention can be identified by their ability to bind to, and/or inhibit the activity of, one or more bacterial RNA polymerases. RNA polymerase as used herein refers to DNA-dependent RNA polymerase holoenzyme, which is a complex consisting of five protein subunits: two copies of the a subunit and one copy each of the β, β', and σ subunits. The α, β and β' subunits are invariant in a given bacterial species and together form core RNA polymerase.
RNA polymerase inhibition activity of a compound can be detected by including the compound in an in vitro transcription reaction and comparing the level of transcription that occurs in the presence and absence of the compound. […] After incubation for 60 minutes at 25° C., the reaction is terminated with 100 μl 10% TCA, which also precipitates the newly transcribed RNA, and incorporation of radioactivity into RNA is quantified. […]
It will be understood that useful antimicrobial compositions and formulations act selectively on microbial pathogens. […] That is, the inhibitory activity of a particular compound towards an animal RNA polymerase may be measured in parallel with a bacterial RNA polymerase. […]

[10] = Escherichia coli, read-out: MIC
[11] = Staphylococcus aureus, read-out: MIC

Compound	MIC ([1]; Escherichia coli) [µg/mL]	MIC [2, 10] [µg/mL]	MIC [3, 11] [µg/mL]	MIC ([4]; Staphylococcus aureus) [µg/mL]	MBC [5] [µg/mL]	MBC [6] [µg/mL]	MBC [7] [µg/mL]	MBC [8] [µg/mL]	antimicrobial activity against E. coli ([1]; in words, MIC and MBC, E. coli strain not named)	antimicrobial activity against S. aureus ([3]; in words, MIC and MBC, compared with the other compounds)	selectivity for bacterial RNA polymerase relative to human RNA polymerase [9]	MIC ([1]; E. coli (MCR106)) [µg/mL]	MIC [2] [µg/mL]	MIC [3] [µg/mL]	MIC ([4]; S. Aureus (Rif-res), rifampicin-resistant) [µg/mL]	MBG [5] [µg/mL]	MBG [6] [µg/mL]	MBG ([7]; S. Aureus, minimum bactericidal concentration) [µg/mL]	MBG ([8]; S. Aureus (Rif-res), rifampicin-resistant, minimum bactericidal concentration) [µg/mL]
CC(C)Nc1ccc(Nc2ccnc3cc4ccccc4cc23)cc1 [N^1-benzo[g]quinolin-4-yl-N^4-isopropyl-1,4,benzenediamine]	> 64	> 64	8 (≈ 24.4 µM)	32 (≈ 97.7 µM)	> 64	> 64	8 (≈ 24.4 µM)	32 (≈ 97.7 µM)	–	–	–	–	–	–	–	–	–	–	–
CCN1CCC(c2ccc(Nc3ccnc4cc5ccccc5cc34)cc2)CC1 [N-[4-(1-ethyl-4-piperidyl)phenyl]benzo[g]quinolin-4-amine]	–	32 (≈ 83.9 µM)	64 (≈ 168 µM)	32 (≈ 83.9 µM)	32 (≈ 83.9 µM)	32 (≈ 83.9 µM)	64 (≈ 168 µM)	32 (≈ 83.9 µM)	–	–	–	–	–	–	–	–	–	–	–
CCCCC(C)Nc1ccnc2cc3ccccc3cc12 (centres unmarked) [N-(1-methylpentyl)benzo[g]quinolin-4-amine]	> 64	8 (≈ 28.7 µM)	16 (≈ 57.5 µM)	8 (≈ 28.7 µM)	> 64	16 (≈ 57.5 µM)	16 (≈ 57.5 µM)	16 (≈ 57.5 µM)	–	–	–	–	–	–	–	–	–	–	–
CCN(CC)CCNc1ccc(Nc2ccnc3cc4ccccc4cc23)cc1 [N^1-benzo[g]quinolin-4-yl-N^4-[2-(diethylamino)ethyl]-1,4-benzenediamine]	8 (≈ 20.8 µM)	4 (≈ 10.4 µM)	16 (≈ 41.6 µM)	8 (≈ 20.8 µM)	16 (≈ 41.6 µM)	16 (≈ 41.6 µM)	16 (≈ 41.6 µM)	8 (≈ 20.8 µM)	–	–	–	–	–	–	–	–	–	–	–
c1ccc2cc3c(Nc4ccc(N5CCCCC5)cc4)ccnc3cc2c1 [N-[4-(1-piperidinyl)phenyl]benzo[g]quinolin-4-amine]	> 64	2 (≈ 5.66 µM)	2 (≈ 5.66 µM)	2 (≈ 5.66 µM)	> 64	2 (≈ 5.66 µM)	4 (≈ 11.3 µM)	2 (≈ 5.66 µM)	less effective against E. coli	most potent antimicrobial activity against s. aureus	highest degree of selectivity for bacterial RNA polymerases	–	–	–	–	–	–	–	–
OCCCN1CCN(c2ccc(Nc3ccnc4cc5ccccc5cc34)cc2)CC1 [3{4-[4-(benzo[g]quinolin-4-yl-amino)phenyl]-1-piperazinyl}-1-propanol]	16 (≈ 38.8 µM)	8 (≈ 19.4 µM)	32 (≈ 77.6 µM)	8 (≈ 19.4 µM)	64 (≈ 155 µM)	8 (≈ 19.4 µM)	32 (≈ 77.6 µM)	8 (≈ 19.4 µM)	–	–	–	–	–	–	–	–	–	–	–
c1ccc2cc3c(Nc4ccc(N5CCCCCC5)cc4)ccnc3cc2c1 [N-[4-(1-azepanyl)phenyl]benzo[g]quinolin-4-amine]	> 64	> 64	2 (≈ 5.44 µM)	1 (≈ 2.72 µM)	> 64	> 64	2 (≈ 5.44 µM)	1 (≈ 2.72 µM)	–	–	–	–	–	–	–	–	–	–	–
C#CCCN1CCN(c2ccc(Nc3ccnc4cc5ccccc5cc34)cc2)CC1 [N-{4-[4-(3-butynyl)-1-piperazinyl]phenyl}benzo[g]quinolin-4-amine]	> 64	> 64	16 (≈ 39.4 µM)	16 (≈ 39.4 µM)	> 64	> 64	16 (≈ 39.4 µM)	16 (≈ 39.4 µM)	–	–	–	–	–	–	–	–	–	–	–
N-{5-benzo[g]quinolin-4-yl-3-[(diethylamino)methyl]-2-methylbenzyl}-N-ethyl-1-ethanamine	–	–	–	–	–	–	–	–	–	–	–	64	16	64	32	> 64	16	64	64
